Patent US20220251044A1, “CRYSTAL FORM OF HYPOXIA-INDUCIBLE FACTOR-PROLYL HYDROXYLASE INHIBITOR” (CRYSTAL PHARMACEUTICAL (SUZHOU) CO., LTD., priority 2019, published 2022)
Values after ≈ are worked out from the molar mass of the structure shown. Read-outs that look alike come from different tables or passages of the source.

Columns and labels:
Format in all cases: physicochemical
[1] = Physical stability on grinding (XRPD); conditions: ground manually for 5 min in a mortar
Method: Form CSI and WO2014014835 Form A was ground manually for 5 min in a mortar.

[2] = Intrinsic dissolution (IDR); conditions: for IDR: slope of data within 5-120 minutes
Method: The parameters for intrinsic dissolution tests in the present disclosure are as follows:
Approximately 100 mg of Form CSI or WO2014014835 Form A was added into the cavity of the die, and then compressed at 10 kN and held for 0.5 minute to obtain a tablet having a surface area of 0.5 cm^2. The die with the tablet still embedded was put into a dissolution apparatus to test the intrinsic dissolution. The slope (in μg/min) of the regression line was calculated according to the data within 5-120 minutes. IDR (in μg/min/cm^2) was further calculated according to the slope.

[3] = Kinetic solubility in SGF, FaSSIF, FeSSIF and water
Excerpt: The parameters for kinetic solubility tests of the present disclosure are as follows:
When solubility test is used to predict the in vivo performance of a drug, it is critical to simulate in vivo conditions as closely as possible. For oral medication, Simulated Gastric Fluid (SGF), Fasted-State Simulated Intestinal Fluid (FaSSIF), Fed-State Simulated Intestinal Fluid (FeSSIF) can be used to simulate the condition in vivo and predict the effects of feeding, thus solubility in such mediums is closer to that in vivo.
20 mg of Form CSI and 20 mg of WO2014014835 Form A were suspended into 4.0 mL of SGF, 4.0 mL of FaSSIF, 4.0 mL of FeSSIF and 4.0 mL of water to get saturated solutions. After equilibrated for 1 h, 4 h, 8 h and 24 h, the concentrations (μg/mL) of Compound I of the saturated solutions were measured by UPLC.

[4] = Hygroscopicity by DVS; conditions: for Weight gain under 80% RH: DVS, 25° C.
Method: Dynamic Vapor Sorption (DVS) was measured via an SMS (Surface Measurement Systems Ltd.) intrinsic DVS instrument. Its control software is DVS-Intrinsic control software. Typical parameters for DVS test are as follows: Temperature: 25° C. Gas and flow rate: N2, 200 mL/min dm/dt: 0.002%/min RH range: 0% RH to 95% RH DVS was applied to test the hygroscopicity of Form CSI and WO2014014835 Form A with about 10 mg of samples. The weight gains at each relative humidity were recorded in a cycle of 0-95%-0 RH. XRPD test was applied before and after DVS. Description and definition of hygroscopicity (general notice 9103 drug hygroscopicity test guidelines in 2015 edition of Chinese Pharmacopoeia, test at 25° C.±1° C., 80% RH. The definition of hygroscopicity in the 9th European Pharmacopoeia 5.11 is similar to the Chinese Pharmacopoeia.).

[5] = Compressibility (tablet hardness, tensile strength); conditions: 80 mg, compressed at 10 kN
Method: ENERPAC manual tablet press was used for compression. 80 mg of Form CSI and WO2014014835 Form A were weighed and added into the dies of a φ6 mm round tooling, compressed at 10 kN, then stored at room temperature for 24 h until complete elastic recovery. Hardness (H) was tested with an intelligent tablet hardness tester. Diameter (D) and thickness (L) were tested with a caliper. Tensile strength of the powder was calculated with the following formula: T=2H/πDL*9.8. Under a certain force, the greater the tensile strength, the better the compressibility.

- Crystalline form and crystallinity after grinding (XRPD) [1]: decreases after grinding
- Crystalline form and crystallinity after grinding (XRPD) ([1]; listed as Form A): decreases after grinding
- Cumulative dissolution ([2]; pH4.5 PBS, 5 min, 37° C., 0.5 cm^2 tablet): 19.9 µg
- Cumulative dissolution ([2]; pH4.5 PBS, 10 min): 24.1 µg
- Cumulative dissolution ([2]; pH4.5 PBS, 15 min): 28.7 µg
- Cumulative dissolution ([2]; pH4.5 PBS, 20 min): 34.0 µg
- Cumulative dissolution ([2]; pH4.5 PBS, 25 min): 36.6 µg
- Cumulative dissolution ([2]; pH4.5 PBS, 30 min): 40.2 µg
- Cumulative dissolution ([2]; pH4.5 PBS, 45 min): 49.1 µg
- Cumulative dissolution ([2]; pH4.5 PBS, 60 min): 59.4 µg
- Cumulative dissolution ([2]; pH4.5 PBS, 90 min): 80.0 µg
- Cumulative dissolution ([2]; pH4.5 PBS, 120 min): 98.2 µg
- IDR ([2]; pH4.5 PBS): 1.3454 μg/min/cm^2
- Cumulative dissolution ([2]; pH6.8 PBS, 5 min, 37° C., 0.5 cm^2 tablet): 439.4 µg
- Cumulative dissolution ([2]; pH6.8 PBS, 10 min): 815.5 µg
- Cumulative dissolution ([2]; pH6.8 PBS, 15 min): 1158.2 µg
- Cumulative dissolution ([2]; pH6.8 PBS, 20 min): 1488.8 µg
- Cumulative dissolution ([2]; pH6.8 PBS, 25 min): 1800.6 µg
- Cumulative dissolution ([2]; pH6.8 PBS, 30 min): 2110.0 µg
- Cumulative dissolution ([2]; pH6.8 PBS, 45 min): 2853.7 µg
- Cumulative dissolution ([2]; pH6.8 PBS, 60 min): 3624.8 µg
- Cumulative dissolution ([2]; pH6.8 PBS, 90 min): 5068.5 µg
- Cumulative dissolution ([2]; pH6.8 PBS, 120 min): 6427.1 µg
- IDR ([2]; pH6.8 PBS): 102.8372 μg/min/cm^2
- Kinetic solubility (concentration of Compound I in saturated solution) ([3]; FaSSIF, 1 hour): 241.2 µg/mL
- solubility kinetic at 4 h ([3]; FaSSIF, thermodynamic from solid, FaSSIF, 4 hours, read-out: Kinetic solubility (concentration of Compound I in saturated solution)): 569 µg/mL (≈ 1620 µM)
- solubility kinetic at 8 h ([3]; FaSSIF, thermodynamic from solid, FaSSIF, 8 hours, read-out: Kinetic solubility (concentration of Compound I in saturated solution)): 567 µg/mL (≈ 1610 µM)
- solubility kinetic at 24 h ([3]; FaSSIF, thermodynamic from solid, FaSSIF, 24 hours, read-out: Kinetic solubility (concentration of Compound I in saturated solution)): 570 µg/mL (≈ 1620 µM)
- solubility kinetic at 1 h ([3]; FeSSIF, thermodynamic from solid, FeSSIF, 1 hour, read-out: Kinetic solubility (concentration of Compound I in saturated solution)): 146 µg/mL (≈ 415 µM)
- solubility kinetic at 4 h ([3]; FeSSIF, thermodynamic from solid, FeSSIF, 4 hours, read-out: Kinetic solubility (concentration of Compound I in saturated solution)): 150 µg/mL (≈ 426 µM)
- solubility kinetic at 8 h ([3]; FeSSIF, thermodynamic from solid, FeSSIF, 8 hours, read-out: Kinetic solubility (concentration of Compound I in saturated solution)): 161 µg/mL (≈ 456 µM)
- solubility kinetic at 24 h ([3]; FeSSIF, thermodynamic from solid, FeSSIF, 24 hours, read-out: Kinetic solubility (concentration of Compound I in saturated solution)): 269 µg/mL (≈ 762 µM)
- Kinetic solubility (concentration of Compound I in saturated solution) ([3]; SGF, 1 hour): 3.6 µg/mL
- Kinetic solubility (concentration of Compound I in saturated solution) ([3]; SGF, 4 hours): 3.7 µg/mL
- Kinetic solubility (concentration of Compound I in saturated solution) ([3]; SGF, 8 hours): 3.7 µg/mL
- Kinetic solubility (concentration of Compound I in saturated solution) ([3]; SGF, 24 hours): 3.6 µg/mL
- Kinetic solubility (concentration of Compound I in saturated solution) ([3]; water, 1 hour): 4.7 µg/mL
- Kinetic solubility (concentration of Compound I in saturated solution) ([3]; water, 4 hours): 7.9 µg/mL
- Kinetic solubility (concentration of Compound I in saturated solution) ([3]; water, 8 hours): 8.4 µg/mL
- Kinetic solubility (concentration of Compound I in saturated solution) ([3]; water, 24 hours): 10.1 µg/mL
- Weight gain under 80% RH [4]: 0.21%
- Weight gain under 80% RH ([4]; listed as Form A): 0.21%
- Hygroscopicity class ([4]; weight gain under 80% RH): slightly hygroscopic
- Tensile strength ([5]; T=2H/πDL*9.8): 0.33 MPa
- Hardness ([5]; φ6 mm round tooling, after 24 h): 0.67 kgf
Compound: Cc1nc(C(=O)NCC(=O)O)c(O)c2ccc(Oc3ccccc3)cc12 [WO2014014835 Form A, [(4-hydroxy-1-methyl-7-phenoxy-isoquinoline-3-carbonyl)-amino]-acetic acid, reference compound]
